Reference: ChEMBL document CHEMBL6120946, “From Hit to Lead: Discovery of First-In-Class Furanone Glycoside D228 Derived from Chimonanthus salicifolius for the Treatment of Inflammatory Bowel Disease” (J Med Chem, 2024)
Active and inactive are the calls of the source. The rule behind the calls is not given here.

Legend:
[1] = system: Mus musculus; experiment: Antiinflammatory activity in DSS-induced male C57BL/6 mouse model of inflammatory bowel disease assessed as recovery from body weight loss at 20 mg/kg/day, ip measured after 14 days relative to control; format: functional; conditions: time 14 day
[2] = Cytotoxicity against mouse Splenocyte by MTT assay; format: toxicity, cell-based; conditions: splenocytes
[3] = system: B-cell line; experiment: Immunosuppressive activity in mouse B-lymphocyte assessed as reduction in LPS-induced cell proliferation incubated for 48 hrs; format: functional, cell-based
[4] = Selectivity ratio of CC50 for cytotoxicity against mouse Splenocyte to IC50 for immunosuppressive activity in mouse B-lymphocyte; format: toxicity; conditions: splenocytes (CC50) and B-lymphocytes (IC50)
[5] = Immunosuppressive activity in mouse T-lymphocyte assessed as reduction in concanavalin A-induced cell proliferation incubated for 48 hrs; format: functional, cell-based
[6] = Selectivity ratio of CC50 for cytotoxicity against mouse Splenocyte to IC50 for immunosuppressive activity in mouse T-lymphocyte; format: toxicity; conditions: splenocytes (CC50) and T-lymphocytes (IC50)
[7] = system: Mus musculus; experiment: Antiinflammatory activity in DSS-induced male C57BL/6 mouse model of inflammatory bowel disease assessed as reduction of severe diarrhea at 15 to 60 mg/kg/day, po via gavage measured upto 14 days; format: functional, organism-based; conditions: dose 15-60 mg/kg/day, time <= 14.0 day
[8] = system: Mus musculus; experiment: Antiinflammatory activity in DSS-induced male C57BL/6 mouse model of inflammatory bowel disease assessed as increase in colon length at 30 mg/kg/day, po via gavage measured upto 14 days relative to control; format: functional; conditions: time <= 14 day
[9] = system: Mus musculus; experiment: Antiinflammatory activity in DSS-induced male C57BL/6 mouse model of inflammatory bowel disease assessed as recovery from body weight loss at 40 mg/kg/day, po measured after 7 days; format: functional, organism-based; conditions: time 7.0 day
[10] = system: Mus musculus; experiment: Antiinflammatory activity in DSS-induced male C57BL/6 mouse model of inflammatory bowel disease assessed as recovery from body weight loss at 40 mg/kg/day, po measured after 7 days relative to control; format: functional; conditions: time 7 day
[11] = system: Mus musculus; experiment: Antiinflammatory activity in DSS-induced male C57BL/6 mouse model of inflammatory bowel disease assessed as recovery in colon length at 40 mg/kg/day, po measured after 7 days relative to control; format: functional; conditions: time 7 day
[12] = system: Mus musculus; experiment: Antiinflammatory activity in DSS-induced male C57BL/6 mouse model of inflammatory bowel disease assessed as inhibition of MPO expression at 50 to 200 microM/Kg, po by immunohistochemical analysis; format: functional, organism-based; conditions: dose 50-200 µM/Kg
[13] = Half life in male C57 mouse at 1 mg/kg, iv measured upto 24 hrs; format: ADME, organism-based; conditions: in vivo
[14] = Apparent volume of distribution in male C57 mouse at 1 mg/kg, iv measured upto 24 hrs; format: ADME, organism-based; conditions: in vivo, read-out: Vz
[15] = AUC last in male C57 mouse at 1 mg/kg, iv measured upto 24 hrs; format: ADME, organism-based; conditions: in vivo
[16] = AUC infinity in male C57 mouse at 1 mg/kg, iv measured upto 24 hrs; format: ADME, organism-based; conditions: in vivo
[17] = MRT last in male C57 mouse at 1 mg/kg, iv measured upto 24 hrs; format: ADME, organism-based; conditions: in vivo
[18] = Clearance in male C57 mouse at 1 mg/kg, iv measured upto 24 hrs; format: ADME, organism-based; conditions: in vivo
[19] = Cmax in male C57 mouse at 5 mg/kg, po measured upto 24 hrs; format: ADME, organism-based; conditions: in vivo
[20] = Tmax in male C57 mouse at 5 mg/kg, po measured upto 24 hrs; format: ADME, organism-based; conditions: in vivo
[21] = Half life in male C57 mouse at 5 mg/kg, po measured upto 24 hrs; format: ADME, organism-based; conditions: in vivo
[22] = Apparent volume of distribution in male C57 mouse at 5 mg/kg, po measured upto 24 hrs; format: ADME, organism-based; conditions: in vivo
[23] = AUC last in male C57 mouse at 5 mg/kg, po measured upto 24 hrs; format: ADME, organism-based; conditions: in vivo
[24] = AUC infinity in male C57 mouse at 5 mg/kg, po measured upto 24 hrs; format: ADME, organism-based; conditions: in vivo
[25] = MRT last in male C57 mouse at 5 mg/kg, po measured upto 24 hrs; format: ADME, organism-based; conditions: in vivo
[26] = Clearance in male C57 mouse at 5 mg/kg, po measured upto 24 hrs; format: ADME, organism-based; conditions: in vivo
[27] = Oral bioavailability in male C57 mouse at 5 mg/kg measured upto 24 hrs; format: ADME, organism-based; conditions: in vivo
[28] = system: Mus musculus; experiment: Antiinflammatory activity in DSS-induced male C57BL/6 mouse model of inflammatory bowel disease assessed as reduction in diarrhea at 22.5 to 45 mg/kg/day, po via gavage measured upto 14 days; format: functional, organism-based; conditions: dose 22.5-45 mg/kg/day, time <= 14.0 day
[29] = system: Mus musculus; experiment: Antiinflammatory activity in DSS-induced male C57BL/6 mouse model of inflammatory bowel disease assessed as decrease in p38 phosphorylation level at 50 to 100 microM/Kg by Western blot analysis; format: functional, organism-based; conditions: dose 50-100 µM/Kg
[30] = Metabolic stability in dog plasma assessed as half life at pH 7.4 measured upto 60 mins by HPLC-MS analysis; format: ADME, cell-free, Canis lupus familiaris
[31] = Genotoxicity in erythrocyte (unknown origin) by Erythrocyte micronucleus test; format: toxicity, cell-based
[32] = Toxicity in male Kunming mouse assessed as effect on body weight loss at 100 to 500 mg/kg/day, po measured after 5 weeks; format: organism-based; conditions: in vivo, 840 h, dose 100-500 mg/kg/day
[33] = Toxicity in male Kunming mouse assessed as effect on heart to body weight ratio at 100 to 500 mg/kg/day, po measured after 5 weeks; format: organism-based; conditions: in vivo, 840 h, dose 100-500 mg/kg/day
[34] = Toxicity in male Kunming mouse assessed as effect on heart at 100 to 500 mg/kg/day, po measured after 5 weeks by H and E staining based analysis; format: organism-based; conditions: in vivo, 840 h, dose 100-500 mg/kg/day
[35] = Toxicity in male Kunming mouse assessed as effect on spleen at 100 to 500 mg/kg/day, po measured after 5 weeks by H and E staining based analysis; format: organism-based; conditions: in vivo, 840 h, dose 100-500 mg/kg/day
[36] = Toxicity in male Kunming mouse assessed as effect on kidney at 100 to 500 mg/kg/day, po measured after 5 weeks by H and E staining based analysis; format: organism-based; conditions: in vivo, 840 h, dose 100-500 mg/kg/day
[37] = Toxicity in male Kunming mouse assessed as effect on AST level in serum at 100 to 500 mg/kg/day, po measured after 5 weeks; format: organism-based; conditions: in vivo, 840 h, dose 100-500 mg/kg/day
[38] = Toxicity in male Kunming mouse assessed as effect on […] level in serum at 100 to 500 mg/kg/day, po measured after 5 weeks; format: organism-based; conditions: in vivo, 840 h, dose 100-500 mg/kg/day
[39] = Toxicity in female Kunming mouse assessed as effect on spleen to body weight ratio at 100 to 500 mg/kg/day, po measured after 5 weeks; format: organism-based; conditions: in vivo, 840 h, dose 100-500 mg/kg/day
[40] = Toxicity in female Kunming mouse assessed as effect on lung at 100 to 500 mg/kg/day, po measured after 5 weeks by H and E staining based analysis; format: organism-based; conditions: in vivo, 840 h, dose 100-500 mg/kg/day
[41] = Toxicity in female Kunming mouse assessed as effect on TBIL level in serum at 100 to 500 mg/kg/day, po measured after 5 weeks; format: organism-based; conditions: in vivo, 840 h, dose 100-500 mg/kg/day
[42] = Toxicity in female Kunming mouse assessed as effect on BUN level in serum at 100 to 500 mg/kg/day, po measured after 5 weeks; format: organism-based; conditions: in vivo, 840 h, dose 100-500 mg/kg/day
[43] = Toxicity in female Kunming mouse assessed as effect on GLU level in serum at 100 to 500 mg/kg/day, po measured after 5 weeks; format: organism-based; conditions: in vivo, 840 h, dose 100-500 mg/kg/day

SMILES	CC50 [2] [µM]	IC50 [3] [µM]	selectivity ratio [4]	IC50 [5] [µM]	selectivity ratio [6]	Activity [9]	Activity [10] [%]	Activity [11] [%]	half-life [13] [min]	Vd [14] [L/kg]	AUC(0-t) at 24 h [15] [ng·h/mL]	AUC(0-inf) [16] [ng·h/mL]	MRT last at 24 h [17] [min]	clearance [18] [mL/min/kg]	Cmax [19] [ng/mL]	Tmax [20] [min]	Vz [22] [L/kg]	AUC(0-t) at 24 h [23] [ng·h/mL]	AUC(0-inf) [24] [ng·h/mL]	MRT last at 24 h [25] [min]	also measured
CC(C)=C1OC(C)=C(O[C@@H]2O[C@H](CO)[C@@H](O)[C@H](O)[C@H]2O)C1=O	149	85.8	1.9	308	0.63	Active	45.6	50.5	27	1.09	592	594	19.8	28.5	284	15	29.6	177	180	254	Activity [1]: 50%; Activity [7]: Active; Activity [8]: 65.6%; Activity [12]: Active; t1/2 ([21]; mouse, po, 5 mg/kg, 24 h): 332 min; CL ([26]; mouse, po, 5 mg/kg, 24 h): 475.7 mL/min/kg; bioavailability [27]: 6%
CC(=O)OC[C@H]1O[C@@H](OC2=C(C)OC(=C(C)C)C2=O)[C@H](OC(C)=O)[C@@H](OC(C)=O)[C@@H]1OC(C)=O	60	3.15	22	42.9	1.44	Active	27	33.3	16.2	9.25	32.3	44	10.2	397	48.4	19.8	137.3	58.3	93.6	63.6	Activity [28]: Active; Activity [29]: Active; half-life [30]: 32.5 min; half-life ([21]; male, C57, mouse): 115 min; CL/F ([26]; male, C57, mouse): 915 mL/min/kg; bioavailability [27]: 36.1%; Activity [31]: Non-toxic; Activity [32]: Non-toxic; Activity [33]: Non-toxic; Activity [34]: Non-toxic; Activity [35]: Non-toxic; Activity [36]: Non-toxic; Activity [37]: Non-toxic; Activity [38]: Non-toxic; Activity [39]: Non-toxic; Activity [40]: Non-toxic; Activity [41]: Non-toxic; Activity [42]: Non-toxic; Activity [43]: Non-toxic
